The record followed here is patent publication US20190291112A1, “DROPLET MICROFLUIDICS FOR DRUG SCREENING” (University of Macau, priority 2018, published 2019).

Molecules are shown by their SMILES.

Format in all cases: cell-based, human
One assay deals with Jurkat cells. Put plainly: On chip drug screening assay (ethidium homodimer 1 staining). The note with it: 16-24 h. As to the method: Jurkat E6.1 cells (ATCC® TIB-152™) and MDA-MB-231 cells (ATCC® HTB-26™) were used as models for suspended and adherent cancer cell lines respectively. Jurkat cell line was derived from human acute T cell leukemia, whereas MDA-MB-231 cell line was derived from human metastatic breast adenocarcinoma. On chip drug screening was performed using the PDMS-based microfluidic chip as described above. A 500 μL glass syringe (Hamilton, USA) and polytetrafluoroethylene (PTFE) tubings with appropriate bore (Cole Parmer, USA) was used to connect between the syringe pump (Harvard Apparatus PHD Ultra Syringe Pump, USA) and the microfluidic chip. Fluorinert® FC-40 (Sigma-Aldrich, USA) supplemented with 2% 008-Fluorosurfactant (Ran Biotechnologies, USA) was used as oil phase; relevant cell culture medium, supplemented with 1% (w/v) methyl cellulose (Sigma-Aldrich, USA) was used as aqueous phase. Cells treated with 0.1% dimethyl sulfoxide (DMSO) were used as negative control. […] Next, […], cell-drug mixtures were loaded into the tubing, consecutively segregated by oil phase at withdrawal rate of 200 μL/h by syringe pump. After loading all mixtures, the tubing was inserted into the microfluidic chip, which was back-flushed with oil phase at 500 μL/h by syringe pump. After that, the mixtures were infused at 25 μL/h by syringe pump. Finally, the inlet and outlet tubings were cut and sealed with Vaseline (Vaseline, USA). […] Brightfield and red fluorescence images (Ex. 531/40 nm, Em. 593/40 nm) were taken under 10× magnification (Life Technologies EVOS FL Imaging System, USA). […] For on chip assays, the number of cells was counted in brightfield and red fluorescence images from each well respectively.

For assay [1], the system named is NAS1607 primary nasopharyngeal tumor sample. Put plainly: On chip drug screening of primary tumor dissociated cells. As to the method: (§1) All human studies were conducted with the approval of the Panel on Research Ethics of University of Macau and the Research Ethics Committee of Kiang Wu Hospital, according to the Materials Transfer Agreement between University of Macau and Kiang Wu Hospital. Informed consent for sampling and publication without identifiable information was obtained from all participating patients. All patient sample names were double encoded by the university and the hospital, respectively, to remove any trace of patient identity during sample collection, transfer, processing and analysis. Primary tumors were obtained from surgery conducted at Kiang Wu Hospital immediately after tumor resection. Tumor tissue was dissociated as previously described. Briefly, tumor tissue was first cut into small pieces by a scalpel, then transferred to a 50 mL conical tube containing 5 mL Digestion Buffer I (DMEM/F12 medium containing 5% FBS, 5 μg/mL insulin, 500 ng/mL hydrocortisone, 10 ng/mL epidermal growth factor (EGF), 20 ng/mL cholera toxin, 300 U/mL collagenase III and 100 U/mL hyaluronidase), and digested for no more than 12 h with shaking at 100 rpm in humidified incubator at 37° C. supplemented with 5% CO2. After spinning down at 400 g at ambient temperature for 2 min, the cells were resuspended with 2 mL Digestion Buffer II (DMEM/F12 medium containing 5 mg/mL dispase II and 0.1 mg/mL deoxyribonuclease I), followed by digestion at ambient temperature for 5 min. The cells were then washed with 10 mL HBSS (Life Technologies, USA). […]
(§2) Briefly, cells at final concentrations of 1-2×10^6 cells per mL were aliquoted in 0.2 mL PCR tubes, then mixed with corresponding drugs and 2 μM ethidium homodimer 1 (Life Technologies, USA) by manual pipetting. […] Brightfield and red fluorescence images (Ex. 531/40 nm, Em. 593/40 nm) were taken under 10× magnification (Life Technologies EVOS FL Imaging System, USA).
(§3) For on chip assays, the number of cells was counted in brightfield and red fluorescence images from each well respectively. Cell viability was calculated as follows: […]

For assay [2], the system named is NAS1605 primary nasopharyngeal tumor sample. The assay is described as above. The conditions noted are these: NAS1605, 16-24 h, normalized to mock treatment. The procedure: as §1, §2, §3

`N.N.[Cl][Pt][Cl]` [cisplatin]: the IC50 in the assay with Jurkat cells was 39 µM. In assay [1] (NAS1607, 100 μM and 33 μM), the susceptibility entry is reported as “leveled off”.
Take `CC(C)C[C@H](NC(=O)[C@H](Cc1ccccc1)NC(=O)c1cnccn1)B(O)O` [bortezomib]: the IC50 in the assay with Jurkat cells (Homo sapiens) was 22.1 µM. The “dose dependence of normalized cell viability” value in assay [2] is on record as “dose-dependent reduction of cell viability”; in assay [1] (NAS1607, 16-24 h, normalized to mock treatment) it was “inverse correlation”.
